From PMC10783034, “Pharmacokinetic and pharmacodynamic evaluation of the atypical tetracyclines chelocardin and amidochelocardin in murine infection models” (Microbiology Spectrum, 2023)
Several values for one entry are separate records, joined by “and”; a condition that tells them apart may be missing. Equal values may be shown once.

Assay: Pharmacokinetic studies in uninfected CD-1 mice (plasma and urine levels)
Assay type: in vivo
Settings: for epimerization in plasma and urine in vivo / urine concentrations at time points > 24 hours / plasma levels at 30 mg/kg IV compared with 15 mg/kg IV / urine levels at 30 mg/kg IV compared with 15 mg/kg IV: mice; for F (bioavailability) / AUC0-t / C0 / Cl/F_obs / MRT / Vz/F_obs / t1/2 (plasma half-life) / Tmax / Cmax: CD-1 mice
Procedure: CHD and CDCHD were administered in single PK studies at the doses of 15 mg/kg and 30 mg/kg IV, at 15 mg/kg SC, and 15 mg/kg PO. Up to 25 µL of blood was collected from the lateral tail vein (n = 3 per time point) and time points t = 0.5, 1, 2, 4, and 8 hours. For 15 mg/kg IV- and PO-administered compounds, blood was also collected at time points t = 24 and 48 hours. For IV- and SC-administered compounds, blood was also collected at t = 0.25 hours. At t = 24 hours (15 mg/kg SC, 30 mg/kg IV) or 72 hours (15 mg/kg IV and PO), animals were euthanized to collect blood. At every blood collection, time point spontaneous urine was collected as well. Whole blood was collected into Eppendorf tubes coated with 0.5 M EDTA and immediately spun down at 15,870× g for 10 min at 4°C. Then, plasma was transferred into a new Eppendorf tube and stored at −80°C until analysis.
First, a calibration curve was prepared by spiking different concentrations of CHD and CDCHD into mouse plasma or mouse urine (matrix for mouse PK or PD samples) from CD-1 mice. Caffeine was used as an internal standard. In addition, quality control samples (QCs) were prepared for CHD and CDCHD in plasma and urine. The following extraction procedures were used: 7.5 µL of a plasma or urine sample (calibration samples, QCs, PK or PD samples) was extracted with 37.5 µL of a mixture of methanol/acetonitrile (2:1) containing 12.5 ng/mL of glipizide as an internal standard for 5 min at 2,000 rpm on an Eppendorf MixMate® vortex mixer. Then samples were spun down at 15,870× g for 10 min. Supernatants were transferred to standard HPLC glass vials.
Samples were analyzed using an Agilent 1290 HPLC system coupled to an AB Sciex QTrap 6500 mass spectrometer. LC conditions were as follows: column: Agilent Zorbax Eclipse Plus C18, 50 × 2.1 mm, 1.8 µm; temperature: 30°C; injection volume: 5 µL per sample; flow rate: 700 µL/min. Samples were run under the following conditions. Solvents for acidic conditions: A: 100% water +0.1% formic acid; solvent B: 100% acetonitrile +0.1% formic acid. The gradient for CDCHD was as follows: 99% A at 0 min, 99% A until 1 min, 99%–50% A from 1 to 2.4 min, 50%–35% A from 2.4 to 2.7 min, 35–0% A from 2.7 until 4.5 min, 0% A until 6 min, 0-99% from 6 to 6.2 min, 99% A until 8.0 min. The gradient for CHD was as follows: 99%–90% A from 0 to 1 min, 90%–55% A from 1 to 2.3 min, 50%–40% A from 2.3 to 2.5 min, 40%–0% A from 2.5 to 4.5 min, 0% A until 6 min, 0%–99% A from 6 to 6.2 min, 99% A until 8.0 min. Mass transitions are depicted in Table S3. Peaks of PK and PD samples were quantified using the calibration curve. The accuracy of the calibration curve was determined using QCs independently prepared on different days. PK parameters were determined using a non-compartmental analysis with PKSolver ([55]).

[1] = plasma, 15 mg/kg IV, for CHD active CHD only

SMILES	epimerization in plasma and urine in vivo (15 mg/kg IV)	urine concentrations at time points > 24 hours (15 mg/kg IV)	F (bioavailability) (15 mg/kg PO, 15 mg/kg)	F (bioavailability) (15 mg/kg SC, 15 mg/kg)	AUC0-t (plasma, 15 mg/kg IV)	C0 (plasma, 15 mg/kg IV)	Cl/F_obs (plasma, 15 mg/kg IV)	MRT (plasma, 15 mg/kg IV)	Vz/F_obs (plasma, 15 mg/kg IV)	C0 [1]	t1/2 (plasma half-life) [1]	AUC0-t (plasma, 15 mg/kg PO)	Cl/F_obs (plasma, 15 mg/kg PO)	MRT (plasma, 15 mg/kg PO)	Tmax (plasma, 15 mg/kg PO)	Vz/F_obs (plasma, 15 mg/kg PO)	AUC0-t (plasma, 15 mg/kg SC)	Cl/F_obs (plasma, 15 mg/kg SC)	MRT (plasma, 15 mg/kg SC)	Vz/F_obs (plasma, 15 mg/kg SC)	also measured
Cc1ccc2c(C)c3c(c(O)c2c1O)C(=O)C1(O)C(=O)C(C(N)=O)=C(O)C(N)C1C3 (centres unmarked) [CDCHD, 2-carboxamido-2-deacetyl-chelocardin]	This was not the case for CDCHD	found at high concentrations	6% and 5.9%	24% and 23.5%	13,229.0 ± 1,147.2 ng/mL*h	around 1.3 µg/mL	16.0 ± 1.4 mL/min/kg	33.4 ± 8.0 h	33.4 ± 6.1 L/kg	1,336.4 ± 523.5 ng/mL	24.3 ± 5.2 h	780.9 ± 187.8 ng·h/mL	294.3 ± 99.2 mL/min/kg	27.9 ± 7.1 h	7.3 ± 1.6 h	394.5 ± 122.6 L/kg	3,109.3 ± 592.0 ng/mL*h	34.5 mL/min/kg	57.3 h	119.2 L/kg	plasma concentrations of CDCHD relative to the active CHD (15 mg/kg IV, time points > 24 hours, higher than active CHD): 10 fold; Cmax (plasma, 15 mg/kg SC, 15 mg/kg): 171 ng/mL and 171.7 ± 17.7 ng/mL; plasma levels at 30 mg/kg IV compared with 15 mg/kg IV: increased plasma levels (by a factor of more than two); urine levels at 30 mg/kg IV compared with 15 mg/kg IV: in a similar range
CC(=O)C1=C(O)[C@H](N)[C@@H]2Cc3c(c(O)c4c(O)c(C)ccc4c3C)C(=O)[C@]2(O)C1=O [CHD, chelocardin]	epimerization was also observed for CHD in plasma and to a lower extent in urine	already declined	24% and 24.2%	90% and 90.2%	31,550.8 ± 2,722.6 ng/mL*h	more than 4 µg/mL	7.9 ± 0.6 mL/min/kg	8.5 ± 0.2 h	5.6 ± 0.5 L/kg	4,234.3 ± 1,737.1 ng/mL	8.2 ± 0.3 h	7,636.3 ± 840.7 ng/mL*h	31.0 ± 4.3 mL/min/kg	19.1 ± 4.1 h	3.3 ± 1.2 h	55.5 ± 14.5 L/kg	28,457.0 ± 4,506.2 ng/mL*h	8.1 ± 1.1 mL/min/kg	9.7 ± 1.8 h	4.8 ± 1.5 L/kg	Cmax of CHD relative to CDCHD (15 mg/kg PO, higher than CDCHD): more than 15 times; plasma levels of CHD relative to CDCHD (15 mg/kg SC, higher than CDCHD): around 10 fold; Cmax (plasma, 15 mg/kg PO): 460.5 ± 58.6 ng/mL; Cmax (plasma, 15 mg/kg SC): 2,109.3 ± 601.9 ng/mL; Tmax (plasma, 15 mg/kg SC): 4.0 ± 0.0 h; Cmax (plasma, 15 mg/kg SC (text)): around 2.1 µg/mL; plasma levels at 30 mg/kg IV compared with 15 mg/kg IV: in a similar range as for the 15 mg/kg IV dose; urine levels at 30 mg/kg IV compared with 15 mg/kg IV: increased urine levels; AUC of CHD relative to CDCHD (plasma, higher than CDCHD, stated in the 15 mg/kg SC paragraph): 3 times
